In paper PMC10638548 (Acta Pharmaceutica Sinica. B, 2023):

Key:
[1] = 20 μmol/L NMV, 0.1 mg HLM, 1 mmol/L NADPH, 37 °C, 1 h
CYP3A4 = CYP3A4 (Homo sapiens, UniProt P08684); conditions: 20 μmol/L NMV, 10 pmol CYP, 1 mmol/L NADPH, 37 °C, 1 h
CYP3A5 = CYP3A5 (Homo sapiens, UniProt P20815); conditions: 20 μmol/L NMV, 10 pmol CYP, 1 mmol/L NADPH, 37 °C, 1 h
CYP1A2 = molecular target: T1, CYP1A2 (Homo sapiens, UniProt P05177); conditions: 20 μmol/L NMV, 10 pmol CYP, 1 mmol/L NADPH, 37 °C, 1 h
T1 sequence (P05177 1-516): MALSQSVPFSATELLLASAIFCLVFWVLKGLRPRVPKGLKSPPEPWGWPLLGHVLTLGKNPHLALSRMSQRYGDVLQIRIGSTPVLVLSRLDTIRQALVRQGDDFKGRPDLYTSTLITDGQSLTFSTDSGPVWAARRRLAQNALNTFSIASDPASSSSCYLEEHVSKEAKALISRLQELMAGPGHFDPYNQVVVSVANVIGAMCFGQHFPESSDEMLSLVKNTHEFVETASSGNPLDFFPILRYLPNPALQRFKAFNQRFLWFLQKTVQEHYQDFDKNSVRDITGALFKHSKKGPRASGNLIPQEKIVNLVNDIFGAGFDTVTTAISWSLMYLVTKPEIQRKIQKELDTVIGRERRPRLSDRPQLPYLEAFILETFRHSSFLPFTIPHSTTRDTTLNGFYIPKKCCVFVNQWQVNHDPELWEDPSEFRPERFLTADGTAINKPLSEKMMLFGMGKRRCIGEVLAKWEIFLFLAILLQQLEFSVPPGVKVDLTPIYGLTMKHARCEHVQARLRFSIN

CYP2A6 = molecular target: T2, CYP2A6 (Homo sapiens, UniProt P11509); conditions: 20 μmol/L NMV, 10 pmol CYP, 1 mmol/L NADPH, 37 °C, 1 h
T2 sequence (P11509 1-494): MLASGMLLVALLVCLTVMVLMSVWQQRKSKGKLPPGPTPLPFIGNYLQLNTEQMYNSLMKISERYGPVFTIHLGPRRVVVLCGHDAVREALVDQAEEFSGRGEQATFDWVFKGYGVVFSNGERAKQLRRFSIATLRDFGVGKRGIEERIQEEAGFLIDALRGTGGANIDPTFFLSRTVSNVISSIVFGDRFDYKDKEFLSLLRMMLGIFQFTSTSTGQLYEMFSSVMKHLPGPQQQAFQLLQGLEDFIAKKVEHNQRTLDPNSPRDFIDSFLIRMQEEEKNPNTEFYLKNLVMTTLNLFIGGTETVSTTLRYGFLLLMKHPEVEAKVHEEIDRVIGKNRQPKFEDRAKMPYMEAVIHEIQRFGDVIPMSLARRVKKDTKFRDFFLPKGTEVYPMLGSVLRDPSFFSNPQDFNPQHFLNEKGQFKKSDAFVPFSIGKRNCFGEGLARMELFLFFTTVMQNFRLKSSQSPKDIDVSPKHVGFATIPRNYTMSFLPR

CYP2B6 = molecular target: T3, CYP2B6 (Homo sapiens, UniProt P20813); conditions: 20 μmol/L NMV, 10 pmol CYP, 1 mmol/L NADPH, 37 °C, 1 h
T3 sequence (P20813 1-491): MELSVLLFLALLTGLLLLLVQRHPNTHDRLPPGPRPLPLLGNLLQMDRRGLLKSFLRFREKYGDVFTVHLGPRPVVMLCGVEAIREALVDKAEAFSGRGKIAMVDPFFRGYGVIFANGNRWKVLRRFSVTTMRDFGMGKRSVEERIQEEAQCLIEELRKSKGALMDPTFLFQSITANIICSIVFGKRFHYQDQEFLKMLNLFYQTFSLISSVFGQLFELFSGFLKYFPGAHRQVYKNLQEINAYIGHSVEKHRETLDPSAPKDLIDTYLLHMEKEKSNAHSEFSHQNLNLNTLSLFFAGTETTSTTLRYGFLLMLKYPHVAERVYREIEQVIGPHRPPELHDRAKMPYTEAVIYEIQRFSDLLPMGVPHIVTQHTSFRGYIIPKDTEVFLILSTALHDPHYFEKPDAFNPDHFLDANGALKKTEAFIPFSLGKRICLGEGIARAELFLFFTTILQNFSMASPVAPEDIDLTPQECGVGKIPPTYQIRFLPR

CYP2C9 = CYP2C9 (Homo sapiens, UniProt P11712); conditions: 20 μmol/L NMV, 10 pmol CYP, 1 mmol/L NADPH, 37 °C, 1 h
CYP2C19 = CYP2C19 (Homo sapiens, UniProt P33261); conditions: 20 μmol/L NMV, 10 pmol CYP, 1 mmol/L NADPH, 37 °C, 1 h
CYP2D6 = CYP2D6 (Homo sapiens, UniProt P10635); conditions: 20 μmol/L NMV, 10 pmol CYP, 1 mmol/L NADPH, 37 °C, 1 h
CYP2E1 = CYP2E1 (Homo sapiens, UniProt P05181); conditions: 20 μmol/L NMV, 10 pmol CYP, 1 mmol/L NADPH, 37 °C, 1 h
[2] = hPXR/CYP3A mice pretreated with RCP (60 mg/kg, po, bid, 4 days), then oral RTV 20 mg/kg + NMV 60 mg/kg
[3] = cited from earlier work
CYP3A4 mRNA = conditions: hPXR/CYP3A mice; RIF 50 mg/kg in diet 7 days; RCP 60 mg/kg po bid 4 days
CYP3A protein = conditions: RCP 60 mg/kg po bid 4 days
[4] = clinical studies, co-administration of carbamazepine (CYP3A inducer) ref 16

Sequence of CYP3A5 (P20815 whole entry): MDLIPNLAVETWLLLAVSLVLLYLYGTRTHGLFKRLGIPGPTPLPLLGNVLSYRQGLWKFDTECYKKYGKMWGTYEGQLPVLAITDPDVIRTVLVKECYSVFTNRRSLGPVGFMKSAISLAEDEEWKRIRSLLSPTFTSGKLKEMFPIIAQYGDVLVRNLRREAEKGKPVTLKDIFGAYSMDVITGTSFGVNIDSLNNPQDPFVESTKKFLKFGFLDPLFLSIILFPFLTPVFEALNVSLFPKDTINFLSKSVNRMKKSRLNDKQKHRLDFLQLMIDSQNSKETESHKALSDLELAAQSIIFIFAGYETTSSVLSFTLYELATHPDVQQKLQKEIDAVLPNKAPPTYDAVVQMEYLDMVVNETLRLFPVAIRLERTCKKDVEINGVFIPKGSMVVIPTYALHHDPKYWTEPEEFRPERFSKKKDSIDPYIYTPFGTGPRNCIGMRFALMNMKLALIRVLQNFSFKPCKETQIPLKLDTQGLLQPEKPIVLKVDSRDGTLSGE
Sequence of CYP2D6 (P10635 whole entry): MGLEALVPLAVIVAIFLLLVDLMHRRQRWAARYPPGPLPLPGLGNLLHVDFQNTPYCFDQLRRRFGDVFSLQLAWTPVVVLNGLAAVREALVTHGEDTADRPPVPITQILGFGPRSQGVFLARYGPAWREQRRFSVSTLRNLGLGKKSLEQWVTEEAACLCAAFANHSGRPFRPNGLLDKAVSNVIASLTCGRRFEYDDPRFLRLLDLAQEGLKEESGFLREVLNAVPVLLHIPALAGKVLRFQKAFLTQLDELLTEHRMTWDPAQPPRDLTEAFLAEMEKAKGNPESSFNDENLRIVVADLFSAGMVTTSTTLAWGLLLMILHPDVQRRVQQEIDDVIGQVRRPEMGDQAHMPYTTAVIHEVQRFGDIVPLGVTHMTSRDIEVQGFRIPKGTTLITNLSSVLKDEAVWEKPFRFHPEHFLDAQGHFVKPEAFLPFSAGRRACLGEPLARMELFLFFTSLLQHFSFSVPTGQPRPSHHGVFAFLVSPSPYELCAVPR
Sequence of CYP3A4 (P08684 whole entry): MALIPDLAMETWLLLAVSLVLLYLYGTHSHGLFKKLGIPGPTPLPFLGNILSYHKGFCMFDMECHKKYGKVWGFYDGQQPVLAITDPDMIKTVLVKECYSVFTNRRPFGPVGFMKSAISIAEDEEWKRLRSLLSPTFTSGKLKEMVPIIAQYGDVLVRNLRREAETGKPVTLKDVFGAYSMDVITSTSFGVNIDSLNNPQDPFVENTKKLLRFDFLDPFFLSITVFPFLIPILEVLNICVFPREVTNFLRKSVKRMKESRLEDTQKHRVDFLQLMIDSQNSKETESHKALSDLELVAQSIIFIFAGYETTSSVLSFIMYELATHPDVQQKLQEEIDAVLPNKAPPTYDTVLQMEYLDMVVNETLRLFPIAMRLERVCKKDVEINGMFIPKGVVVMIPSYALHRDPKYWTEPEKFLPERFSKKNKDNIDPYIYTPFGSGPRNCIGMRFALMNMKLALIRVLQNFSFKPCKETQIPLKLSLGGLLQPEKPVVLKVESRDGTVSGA
Sequence of CYP2E1 (P05181 whole entry): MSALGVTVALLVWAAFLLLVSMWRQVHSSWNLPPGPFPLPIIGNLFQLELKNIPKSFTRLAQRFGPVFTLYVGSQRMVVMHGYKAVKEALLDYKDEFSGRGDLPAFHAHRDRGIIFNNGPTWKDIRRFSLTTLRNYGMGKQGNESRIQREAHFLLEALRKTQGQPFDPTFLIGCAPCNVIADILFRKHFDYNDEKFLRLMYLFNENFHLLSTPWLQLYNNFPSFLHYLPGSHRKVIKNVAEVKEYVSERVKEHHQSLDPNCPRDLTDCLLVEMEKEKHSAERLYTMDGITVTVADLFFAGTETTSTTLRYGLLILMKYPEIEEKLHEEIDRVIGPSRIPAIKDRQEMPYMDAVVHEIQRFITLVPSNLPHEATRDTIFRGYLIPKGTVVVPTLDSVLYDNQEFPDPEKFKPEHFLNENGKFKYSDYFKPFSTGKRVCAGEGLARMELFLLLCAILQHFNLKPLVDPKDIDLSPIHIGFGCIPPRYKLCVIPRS
Sequence of CYP2C9 (P11712 whole entry): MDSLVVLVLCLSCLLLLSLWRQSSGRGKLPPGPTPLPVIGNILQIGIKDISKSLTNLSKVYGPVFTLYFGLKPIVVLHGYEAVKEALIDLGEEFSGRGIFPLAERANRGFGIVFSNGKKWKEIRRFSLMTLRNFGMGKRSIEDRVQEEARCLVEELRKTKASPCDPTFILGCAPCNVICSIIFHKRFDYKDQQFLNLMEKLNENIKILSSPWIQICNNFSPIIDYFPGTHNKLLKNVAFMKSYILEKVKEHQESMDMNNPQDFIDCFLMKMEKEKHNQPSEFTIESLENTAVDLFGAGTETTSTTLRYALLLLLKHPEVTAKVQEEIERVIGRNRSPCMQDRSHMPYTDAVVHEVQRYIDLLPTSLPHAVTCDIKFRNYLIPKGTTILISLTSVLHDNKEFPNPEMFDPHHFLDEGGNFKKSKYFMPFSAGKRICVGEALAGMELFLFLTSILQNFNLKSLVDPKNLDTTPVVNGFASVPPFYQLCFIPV
Sequence of CYP2C19 (P33261 whole entry): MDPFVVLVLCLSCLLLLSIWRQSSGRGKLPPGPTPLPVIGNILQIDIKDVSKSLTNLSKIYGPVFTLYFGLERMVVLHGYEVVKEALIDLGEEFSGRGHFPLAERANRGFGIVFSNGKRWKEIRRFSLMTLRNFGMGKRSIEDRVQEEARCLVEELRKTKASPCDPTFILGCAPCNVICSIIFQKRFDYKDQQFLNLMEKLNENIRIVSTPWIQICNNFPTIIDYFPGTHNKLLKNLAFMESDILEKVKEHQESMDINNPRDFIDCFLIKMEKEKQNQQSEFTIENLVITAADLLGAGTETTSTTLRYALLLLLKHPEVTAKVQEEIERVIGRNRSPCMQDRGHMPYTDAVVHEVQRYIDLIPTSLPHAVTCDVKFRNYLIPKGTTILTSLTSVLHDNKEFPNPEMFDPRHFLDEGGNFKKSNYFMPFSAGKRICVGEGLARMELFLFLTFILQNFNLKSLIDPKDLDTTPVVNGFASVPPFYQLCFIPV

| Structure (SMILES) | number of NMV metabolites identified in the incubation with HLM [1] | contribution of CYP3A4 to NMV metabolism (formation of M1–M7) (CYP3A4) | contribution of CYP3A5 to NMV metabolism (formation of M1–M7) (CYP3A5) | contribution of CYP1A2 to NMV metabolism (CYP1A2) | contribution of CYP2A6 to NMV metabolism (CYP2A6) | contribution of CYP2B6 to NMV metabolism (CYP2B6) | contribution of CYP2C9 to NMV metabolism (CYP2C9) | contribution of CYP2C19 to NMV metabolism (CYP2C19) | contribution of CYP2D6 to NMV metabolism (CYP2D6) | contribution of CYP2E1 to NMV metabolism (CYP2E1) | change of AUC in serum vs control group (in words) [2] | change of Cmax in serum vs control group (in words) [2] | decrease in AUC of NMV [3, 4] | decrease in Cmax of NMV [3, 4] | reduction for NMV exposure ([3]; healthy subjects, CYP3A4 inducer carbamazepine, Paxlovid fact sheet ref 16) | change of NMV (systemic) exposure (in words) ([3]; healthy subjects, CYP3A4 inhibitor itraconazole, Paxlovid fact sheet ref 16) | mRNA expression of CYP3A4 in the liver vs control (CYP3A4 mRNA) | increase of protein level of CYP3A in the liver vs control (CYP3A protein; Pxr-null/CYP3A mice) | protein level of CYP3A in the liver vs control (CYP3A protein; hPXR/CYP3A mice, RIF 50 mg/kg in diet 7 days) |
| --- | --- | --- | --- | --- | --- | --- | --- | --- | --- | --- | --- | --- | --- | --- | --- | --- | --- | --- | --- |
| CC(C)(C)[C@H](NC(=O)C(F)(F)F)C(=O)N1C[C@H]2[C@@H]([C@H]1C(=O)N[C@H](C#N)C[C@@H]1CCNC1=O)C2(C)C [NMV, nirmatrelvir] | 7 | contributed the most to all the 7 metabolic pathways of NMV | also involved in the 7 metabolic pathways of NMV, especially for the production of M4 and M5 | did not contribute to NMV metabolism | did not contribute to NMV metabolism | did not contribute to NMV metabolism | did not contribute to NMV metabolism | did not contribute to NMV metabolism | did not contribute to NMV metabolism | did not contribute to NMV metabolism | significantly decreased | significantly decreased | ~50% | ~50% | ~50% | increased the systemic exposure of NMV |  |  |  |
| CC[C@H]1CN2CC[C@]3(C(=O)Nc4ccccc43)[C@@H]2C[C@@H]1/C(=C\OC)C(=O)OC [RCP, rhynchophylline] |  |  |  |  |  |  |  |  |  |  |  |  |  |  |  |  | significantly upregulated | but not in Pxr-null/CYP3A mice | increased the protein level of CYP3A |
| CC(C)c1nc(CN(C)C(=O)N[C@H](C(=O)N[C@@H](Cc2ccccc2)C[C@H](O)[C@H](Cc2ccccc2)NC(=O)OCc2cncs2)C(C)C)cs1 [RTV, ritonavir] |  |  |  |  |  |  |  |  |  |  | also decreased | also decreased |  |  |  |  |  |  |  |
